Measurements published in patent publication US20140314752A1, “METHODS FOR TREATING CANCER USING TOR KINASE INHIBITOR COMBINATION THERAPY” (Signal Pharmaceuticals, LLC, priority 2013, published 2014).

Tests used:
Type in all cases: cell-based, human
[1] = tested on: Lenalidomide-resistant H929 cell lines (H929 R10-1 through 4); assay: Anti-proliferative effect on lenalidomide-resistant H929 cell lines; conditions: lenalidomide-resistant H929 lines with ~50% reduction in cereblon protein
Protocol: Cell density and viability were monitored using the Vi-cell XR cell viability analyzer (Beckman Coulter). Once cell viability was >90% and cell density was ˜5×10^5 cells/mL (log phase), the cells were incubated at the indicated concentrations of a TOR kinase inhibitor and/or second active agent at a final concentration of 0.1% vehicle (DMSO). For combination studies, the TOR kinase inhibitor and the second active agent were simultaneously added to cells in triplicate. Cell proliferation was determined after 5 days of treatment by flow cytometry on unfixed cells and using 7-aminoactinomycin D (7AAD) (Molecular Probes, Carlsbad, Calif., USA) exclusion (0.25% final dye concentration) for viability assessment. Flow cytometry was utilized to gate on the target cells and to measure 7AAD negative and 7AAD positive cells. Stained cells were analyzed on a FACS Array flow cytometer with standard BD FACS Array System software (BDBiosciences, Palo Alto, Calif.). The percentage of surviving cells (7AAD negative) was calculated relative to cells treated with vehicle (DMSO) control. For single compound treatments (TOR kinase inhibitor and second active agents separately), the average values from triplicates were plotted to obtain IC50 values using software XLfit from IDBS. […]

[2] = tested on: lenalidomide-sensitive and resistant myeloma cell lines; assay: Combination effects in lenalidomide-sensitive and resistant myeloma cell lines; conditions: multiple myeloma cell lines in vitro
Text: Cell lines and cell culture: Cell lines were purchased from American Type Culture Collection (ATCC) and maintained in culture medium recommended by ATCC. […] Multiple myeloma (MM) cell lines that were used or can be used include the following: NCI-H929, LP-1, MM1.s, U266B1, DF-15 and RPMI-8226 human MM-derived cell lines. The […] ® resistant cell lines H929/R1, H929/R2, H929/R3 and H929/R4 were established by continuous exposure of H929 parental cells (H929) to increasing concentrations of […] ® for a minimum of 5 months. The control cell line H929/D was established by continuous exposure of H929 parental cells to 0.1% DMSO.
The number of cells affected by compound treatment was normalized to the DMSO control (100% viability) and the data was imported into the CalcuSyn software (V2.1, Biosoft). Synergism was quantitated by the combination index (CI) using CalcuSyn according to Chou-Talalay's CI method with mathematical modeling and simulations. […] ED50 is the median effect dose at which a 50% growth inhibition is achieved.
Cell density and viability were monitored using the Vi-cell XR cell viability analyzer (Beckman Coulter). […] Cell proliferation was determined after 5 days of treatment by flow cytometry on unfixed cells and using 7-aminoactinomycin D (7AAD) (Molecular Probes, Carlsbad, Calif., USA) exclusion (0.25% final dye concentration) for viability assessment. […]

HepG2 cells = assay: Anchorage independent growth (colony formation) assay; conditions: single agent, concentrations of 0.1 to 100 μM
Protocol: (§1) Cell Lines/Cells. Human cell lines HepG2 and SK-Hep-1 cells were obtained from American Type Culture Collection (ATCC; Manassas, Va.). Cells were cultured in DMEM (Dulbecco's Modified Eagle's Medium) (Mediatech; Mannasas, Va.) with 10% Premium FBS (Lonza, Walkersville, Md.).
(§2) (1) Single Agent Colony Formation Assay. Nobel Agar (1.2 grams; BD; Franklin Lakes, N.J.) was placed in a 100-mL sterile bottle. Sterile water (100 mL) was added and microwaved until the agar boiled. Equal volumes of agar and 2×RPMI medium (ECE Scientific; Doylestown, Pa.) were mixed and 300 μL were transferred to each well in a 24-well flat bottom plate (BD; Franklin Lakes, N.J.). Plates were kept at 4° C. until the agar solidified. Cultures of HepG2 and SK-Hep-1 cells were harvested and resuspended in culture medium at 3.6×10^3 cells/mL. Equal volumes of agar, 2×RPMI, and cell suspension (1:1:1) were mixed in a sterile tube and 500 μL/well were immediately transferred into the 24-well plates. Plates were kept at 4° C. until the agar solidified. Culture medium (500 μL) containing compound or DMSO was added to each well (final DMSO concentration for each treatment was 0.2%). Compound 1 was tested at final concentrations of 0.1, 0.3, 1, 3, 10 and 30 μM. […]
(§3) Significance versus the DMSO control was calculated using One Way ANOVA and Dunnett's Post test or unpaired t tests using GraphPad Prism v5.01.

SK-Hep-1 cells = assay: as above; conditions: single agent, concentrations of 0.1 to 100 μM
Protocol: as §1, §2, §3

| Structure (SMILES) | Anti proliferative effects, single agent [1] | Dependence of activity on cereblon protein levels [2] | Anti-colony forming activity (HepG2 cells) | Anti-colony forming activity (SK-Hep-1 cells) |
| --- | --- | --- | --- | --- |
| CO[C@H]1CC[C@H](N2C(=O)CNc3ncc(-c4ccc(C(C)(C)O)nc4)nc32)CC1 [Compound 1, 7-(6-(2-hydroxypropan-2-yl)pyridin-3-yl)-1-((1r,4r)-4-methoxycyclohexyl)-3,4-dihydropyrazino-[2,3-b]pyrazin-2(1H)-one] | potent anti proliferative effects | independent of cereblon protein levels | dose-dependent and significant anti-colony forming activity | dose-dependent and significant anti-colony forming activity |
| CCN1C(=O)CNc2ncc(-c3ccc(-c4nc[nH]n4)nc3C)nc21 [Compound 2, 1-ethyl-7-(2-methyl-6-(1H-1,2,4-triazol-3-yl)pyridin-3-yl)-3,4-dihydropyrazino[2,3-b]pyrazin-2(1H)-one] | potent anti proliferative effects | independent of cereblon protein levels |  |  |
